Results reported in patent US20060173067A1, “Small molecules for the treatment of atherosclerosis” (The Regents of the University of California, priority 2004, published 2006).
Entries after “also recorded” stand apart in the source; their conditions may differ. Where a SMILES comes first, the peptide text is derived from it. [ ]: non-standard residue; d: D form. The star is where a group is joined. Boc = CC(C)(C)OC(=O)*; OtBu = CC(C)(C)O*; tBu = CC(C)(C)*

Experiments:
apoE null mice [1] = test: Atherosclerosis in apoE null mice fed SEQ ID NO:5 in chow for 12 weeks; assay type: in vivo; conditions: 200 μg/gm chow, p=0.012, FIG. 16
[2] = Solubility of peptides in ethyl acetate; assay type: physicochemical; conditions: 10 mg/mL added, room temperature 30 minutes, FIG. 3
Experimental: To evaluate solubility in ethyl acetate, each peptide was weighed and added to a centrifuge tube and ethyl acetate (HPLC grade; residue after evaporation <0.0001%) was added to give a concentration of 10 mg/mL. The tubes were sealed, vortexed and kept at room temperature for 30 minutes with vortexing every 10 minutes. The tubes were then centrifuged for 5 minutes at 10,000 rpm and the supernatant was removed to a previously weighed tube. The ethyl acetate was evaporated under argon and the tubes weighed to determine the amount of peptide that had been contained in the supernatant. The percent of the originally added peptide that was dissolved in the supernatant is shown on the Y-axis. he data are mean±S.D. Control represents sham treated tubes; SEQ ID NO:3 and SEQ ID NO:4 were both synthesized from all D-amino acids. The sequence Boc-Phe-Arg-Glu-Leu-OtBu (SEQ ID NO:5, SEQ ID NO:250 in copending application U.S. Ser. No. 10/649,378) was synthesized from all L-amino acids.

[3] = Interaction of peptide with DMPC in an aqueous environment (dialysis, negative-stain electron micrograph); assay type: physicochemical; conditions: DMPC: peptide 1:10 wt:wt
apoE null mice [4] = test: Atherosclerosis in apoE null mice fed peptide in chow for 15 weeks; assay type: in vivo; conditions: female apoE null mice, 200 μg/gm chow
Experimental: The aortic root (aortic sinus) lesion score was determined in the apoE null mice described in FIG. 13. The number of mice in each group is shown (n=) at the bottom of the figure and a representative section for each group is shown at the top of the figure.
The percent aortic surface containing atherosclerotic lesions was determined in en face preparations in the apoE null mice described in FIG. 13. The number of mice in each group is shown (n=) at the bottom of the left panel and a representative aorta for mice fed chow alone or chow supplemented with. SEQ ID NO:4 is shown in the right panel.
(§1) Female apoE null mice at age 8 weeks were given no additions to their diet (Chow) or received 200 μg/gm chow of SEQ ID NO:3 (+254) or 200 μg/gm chow of SEQ ID NO: 4 (+258), both synthesized from all D-amino acids. After 15 weeks the mice were bled and their plasma fractionated by FPLC and their HDL (mHDL) tested in a human artery wall cell coculture. A standard human LDL (at 100 μg/mL of LDL-cholesterol) was added alone (LDL) or not added (no addition) or was added with 50 μg/mL of normal human HDL (hHDL) or 50 μg/mL of mouse HDL (mHDL) to human artery wall cocultures and the resulting monocyte chemotactic activity was determined and plotted on the Y-axis.

[5] = Interaction of peptide with DMPC in an aqueous environment (dialysis, negative-stain electron micrograph); assay type: physicochemical; conditions: for appearance of solution after dialysis (deoxycholate removed): DMPC: peptide 1:10 wt:wt in PBS; for Bilayer dimension of stacked bilayers / Spacing between bilayers in the stack / Vesicular structures, size: DMPC: peptide 1:10 wt:wt, aqueous environment
Experimental: FIG. 4 SEQ ID NO:4 forms 7.5 nm particles when mixed with DMPC in an aqueous environment. To 1 mg/ml of DMPC suspension in phosphate buffered saline (PBS) was added 10% deoxycholate until the DMPC was dissolved. SEQ ID NO: 4 or SEQ ID NO:3 were added (DMPC: peptide; 1:10; wt:wt) and the reaction mixture dialyzed. […] The figure is an electron micrograph prepared with negative staining and at 147,420× magnification. The arrows indicate SEQ ID NO: 4 particles measuring 7.5 nm (they appear as small white particles).
To 1 mg/ml of DMPC suspension in phosphate buffered saline (PBS) was added 10% deoxycholate until the DMPC was dissolved. Peptides, SEQ ID NO:4 or SEQ ID NO:3, were added (DMPC: peptide; 1:10; wt:wt) and the reaction mixture dialyzed.

[6] = tested on: LDL-induced monocyte chemotactic activity in human artery wall cocultures; test: Monocyte chemotactic activity in human artery wall cell coculture with HDL of peptide-fed apoE null mice; assay type: in vivo; conditions: female apoE null mice, 200 μg/gm chow, 15 weeks, 50 μg/mL mouse HDL, FIG. 13
Excerpt: Lipoproteins, human artery wall cocultures, and monocytes can be prepared and monocyte chemotactic activity (MCA) determined as previously described (Van Lenten et al. (2002) Circulation, 106: 1127-1132). Induction of MCA by a standard control LDL can be determined in the absence or presence of the subject's HDL. Values in the absence of HDL are typically normalized to 1.0. Values greater than 1.0 after the addition of HDL indicate pro-inflammatory HDL; values less than 1.0 indicate anti-inflammatory HDL.
as §1

[7] = Solubility in aqueous buffer at pH 7.0; assay type: physicochemical; conditions: pH 7.0, data not shown

Compound | % Aortic Surface Area with Lesions in en face preparations (apoE null mice [1]) | solubility in ethyl acetate [2] | diameter of particles formed with DMPC (Size "Nascent HDL Particles") ([3]; listed as SEQ ID NO: 4) | diameter of particles formed with DMPC (Size "Nascent HDL Particles") ([3]; listed as SEQ ID NO: 6) | aortic root (aortic sinus) atherosclerosis, lesion score (apoE null mice [4]; FIG. 14) | aortic root (aortic sinus) atherosclerosis, lesion score (apoE null mice [4]; FIG. 14, listed as SEQ ID NO: 4) | aortic atherosclerosis in en face preparations, percent aortic surface containing lesions (apoE null mice [4]; FIG. 15) | aortic atherosclerosis in en face preparations, percent aortic surface containing lesions (apoE null mice [4]; FIG. 15, listed as SEQ ID NO: 4) | appearance of solution after dialysis (deoxycholate removed) [5] | Bilayer dimension of stacked bilayers [5] | Spacing between bilayers in the stack [5] | Vesicular structures, size [5] | Vesicular structures, size ([5]; listed as SEQ ID NO: 4) | Bilayer dimension of stacked bilayers ([5]; listed as SEQ ID NO: 6) | Spacing between bilayers in the stack ([5]; listed as SEQ ID NO: 6) | Vesicular structures, size ([5]; listed as SEQ ID NO: 6) | HDL rendered anti-inflammatory (monocyte chemotactic activity) [6] | HDL rendered anti-inflammatory (monocyte chemotactic activity) ([6]; listed as SEQ ID NO: 4) | solubility in aqueous buffer at pH 7.0 [7] | formation of 7.5 nm particles, stacked lipid-peptide bilayers, 38 nm vesicular structures ([5]; conditions of FIG. 4, data not shown)
CC(C)C[C@H](NC(=O)[C@H](CCC(=O)O)NC(=O)[C@H](CCCNC(=N)N)NC(=O)[C@H](Cc1ccccc1)NC(=O)OC(C)(C)C)C(=O)OC(C)(C)C [SEQ ID NO:5, Boc-Phe-Arg-Glu-Leu-OtBu] (Boc-FREL-OtBu) | significantly decreases atherosclerosis | very soluble |  |  |  |  |  |  |  |  |  |  |  |  |  |  |  |  |  | 
CC(C)(C)OC[C@@H](NC(=O)[C@@H](CCC(=O)O)NC(=O)[C@@H](CCCNC(=N)N)NC(=O)[C@@H](CCCCNC(=O)OC(C)(C)C)NC(=O)OC(C)(C)C)C(=O)OC(C)(C)C [SEQ ID NO:4, Boc-Lys(εBoc)-Arg-Glu-Ser(tBu)-OtBu] (Boc-[dK](Boc)[dR][dE][dS](tBu)-OtBu) |  | very soluble; also recorded: highly soluble | approximately 7.5 nm | 7.5 nm | significantly decreases | significantly reduced | significantly decreases | significantly decreased | remained clear | 3.4 to 4.1 nm | approximately 2 nm | approximately 38 nm | approximately 38 nm | 3.4-4.1 nm | 2.0 nm | 38 nm | renders apoE null HDL anti-inflammatory | rendered anti-inflammatory | soluble | 
CC(C)(C)OC[C@@H](NC(=O)[C@@H](CCCNC(=N)N)NC(=O)[C@@H](CCC(=O)O)NC(=O)[C@@H](CCCCNC(=O)OC(C)(C)C)NC(=O)OC(C)(C)C)C(=O)OC(C)(C)C [SEQ ID NO:3, Boc-Lys(εBoc)-Glu-Arg-Ser(tBu)-OtBu] (Boc-[dK](Boc)[dE][dR][dS](tBu)-OtBu) |  | poorly soluble |  |  | not |  | not |  | turbid |  |  |  |  |  |  |  | not |  |  | did not form
